From PubChem BioAssay (NCI) come the findings set out here.

Some test systems named below: SNB-78 CNS; DLD-1 colon; M19-MEL melanoma; DMS 273 small cell lung; HOP-18 NSCLC; RXF-631 renal; LXFL 529 NSCLC; MDA-N; XF 498 CNS.
Assay in all cases: NCI tumour cell line growth inhibition, 48 h

“And” between values parts separate entries of the source, which are not always exact repeats. Equal entries are not always repeated.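 Exposure lasted 48 hours, with cells grown in 96-well plates and compounds tested at five concentrations. At the GI50, growth is halved. TGI: total growth inhibition.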

Take `Cc1ccc(NC(=O)CC/C(CC(=O)c2ccc(F)cc2)=N\NC(=O)C(=O)NN)cc1C`: the TGI in the assay on SNB-78 CNS, with DLD-1 colon, in the assay on M19-MEL melanoma, with DMS 273 small cell lung, with HOP-18 NSCLC and in the assay on RXF-631 renal was greater than 100 µM each time. For the same molecule, the TGI in the assay with LXFL 529 NSCLC was greater than 100 µM.
On to `O=C1c2ccccc2-c2n[nH]c3cccc1c23`, for which, in the assay on MDA-N, the TGI was greater than 100 µM.
With `O=C(O)C[O][Sb][O]CC(=O)O`, in the assay with MDA-N, the GI50 was greater than 100 µM and the TGI was greater than 100 µM.
Regarding `CCC1(C(=O)OC)CCc2c(OC)ccc(OC)c2C1=O` (centres undefined), the TGI in the assay on SNB-78 CNS, in the assay on DLD-1 colon, in the assay on XF 498 CNS, with M19-MEL melanoma, in the assay on DMS 273 small cell lung and in the assay on HOP-18 NSCLC was greater than 100 µM throughout. Also, the TGI in the assay on RXF-631 renal and in the assay on LXFL 529 NSCLC was greater than 100 µM throughout.
With `CN(C)CC/C(=N\Nc1ccc(Cl)c(Cl)c1)c1ccccc1`, the TGI in the assay on SNB-78 CNS came out at 5.65 µM; in the assay with DLD-1 colon it was 10 µM; with M19-MEL melanoma, 3.51 µM; in the assay with DMS 273 small cell lung, 3.23 µM; in the assay on HOP-18 NSCLC, 5.76 µM; in the assay with LXFL 529 NSCLC, 2.9 µM.
`O=C1[C@@H]2C3SC(c4ccccc43)[C@@H]2C(=O)N1c1ccccc1`: the TGI with SNB-78 CNS, in the assay on DLD-1 colon, in the assay on XF 498 CNS, in the assay on M19-MEL melanoma, in the assay with DMS 273 small cell lung and with HOP-18 NSCLC was greater than 100 µM each time. This molecule displayed a TGI in the assay on LXFL 529 NSCLC greater than 100 µM.
Consider `CC1(O)CC2(O)C=CC3=C(C(=O)c4cccc(O)c4C3=O)C2(O)C(=O)C1O` (centres undefined), for which the TGI with DLD-1 colon was determined as 2.31 µM; in the assay with M19-MEL melanoma, 1.76 µM; in the assay on DMS 273 small cell lung, 16.1 µM; in the assay on MDA-N it was 3.24 µM; in the assay with HOP-18 NSCLC it was 3.09 µM; in the assay with LXFL 529 NSCLC, 1.08 µM.
Take `NC(=S)NNC(=O)CCC(=O)Nc1ccc(Cl)cc1Cl`: the TGI in the assay on SNB-78 CNS was greater than 100 µM; in the assay on DLD-1 colon it was greater than 100 µM; in the assay with M19-MEL melanoma, greater than 100 µM; in the assay on DMS 273 small cell lung, greater than 100 µM; in the assay on RXF-631 renal it was greater than 100 µM; in the assay with LXFL 529 NSCLC it was 86.9 µM.
Regarding `CCC[CH2][Ge]([CH2]CCC)([CH2]CCC)[O]C(=O)C(OC)c1ccccc1` (centres undefined), the GI50 is greater than 100 µM in the assay on SNB-78 CNS; 23.7 µM in the assay on DLD-1 colon; 41.1 µM in the assay with XF 498 CNS; 33.9 µM with M19-MEL melanoma; 17.6 µM in the assay with DMS 273 small cell lung; greater than 100 µM with HOP-18 NSCLC. Moreover, the results for the GI50 in the assay on RXF-631 renal and in the assay with LXFL 529 NSCLC were 29.4 µM and 15.6 µM, respectively. The TGI in the assay with SNB-78 CNS was greater than 100 µM; in the assay on DLD-1 colon, greater than 100 µM; with XF 498 CNS, greater than 100 µM; in the assay on M19-MEL melanoma it was greater than 100 µM; in the assay with DMS 273 small cell lung it was greater than 75.9 µM; with HOP-18 NSCLC, greater than 100 µM. The TGI in the assay with RXF-631 renal and with LXFL 529 NSCLC was greater than 100 µM in each case.
For `NC(CSc1nc2ccccn2c1[N+](=O)[O-])C(=O)O` (centres undefined), the TGI with MDA-N was greater than 100 µM.
Regarding `CCOC(=O)C(Cc1ccccc1)NC(=O)OC(C)(C)C` (centres undefined), the TGI in the assay on SNB-78 CNS, in the assay with DLD-1 colon, with XF 498 CNS, in the assay with M19-MEL melanoma, with DMS 273 small cell lung and in the assay with RXF-631 renal was greater than 100 µM throughout. Moreover, in the assay on LXFL 529 NSCLC, the TGI was greater than 100 µM.
`O=C(O)CCCSc1nc2ccccc2s1` showed a TGI in the assay on MDA-N greater than 100 µM.
Take `CC(C)(C)OC(=O)NC1CCC[C@H]1O` (some centres undefined): the TGI with SNB-78 CNS, in the assay on DLD-1 colon, in the assay on XF 498 CNS, in the assay with M19-MEL melanoma, in the assay with DMS 273 small cell lung and in the assay on RXF-631 renal was greater than 100 µM each time. The same molecule showed a TGI with LXFL 529 NSCLC greater than 100 µM.
On to `O=C(O)CCCCCO`, for which the TGI in the assay with SNB-78 CNS, with DLD-1 colon, in the assay on XF 498 CNS, in the assay with M19-MEL melanoma, in the assay with DMS 273 small cell lung and in the assay with HOP-18 NSCLC was greater than 100 µM in each case. This molecule yielded a TGI with LXFL 529 NSCLC greater than 100 µM.
For the molecule `Nc1nc(N)c(N=O)c(Nc2ccc(I)cc2)n1`, the TGI is 66.6 µM with SNB-78 CNS; 21.6 µM in the assay with DLD-1 colon; greater than 100 µM in the assay on M19-MEL melanoma; 49.7 µM in the assay on DMS 273 small cell lung; 60.6 µM in the assay with LXFL 529 NSCLC.
Turning to `O=C(/C=C/c1ccccc1O)c1cccnc1`, the TGI in the assay on SNB-78 CNS, in the assay with DLD-1 colon, in the assay on XF 498 CNS, in the assay on M19-MEL melanoma, in the assay with DMS 273 small cell lung and in the assay with HOP-18 NSCLC was greater than 100 µM each time. The TGI with RXF-631 renal and in the assay on LXFL 529 NSCLC was greater than 100 µM in each case.
On to `Nc1ncnc2c(C3OC(CO)C(O)C3O)scc12` (centres undefined), for which the TGI in the assay on XF 498 CNS is 0.353 µM and 0.581 µM; in the assay on M19-MEL melanoma, 3.4 µM and 2.31 µM; in the assay with DMS 273 small cell lung it was 0.151 µM and 0.11 µM; in the assay with HOP-18 NSCLC, 4.54 µM; in the assay on LXFL 529 NSCLC, 12.9 µM. The GI50 with M19-MEL melanoma was 0.147 µM; in the assay with LXFL 529 NSCLC it was 0.365 µM.
Consider `CC(=O)OC1C/C(C)=C/CCC(C)/C=C/C2(C)CCC(C(C)(C)O)C12` (centres undefined), for which the TGI in the assay on SNB-78 CNS was greater than 100 µM; with DLD-1 colon it was greater than 100 µM; in the assay with XF 498 CNS it was greater than 100 µM; with M19-MEL melanoma it was 88.6 µM; in the assay with DMS 273 small cell lung it was greater than 100 µM; in the assay on HOP-18 NSCLC, greater than 100 µM. This molecule also displayed a TGI in the assay on LXFL 529 NSCLC greater than 100 µM.
